Assay results from patent US4282244A, “Optical isomers of 4-amino-N-(1-cyclohexyl-3-pyrrolidinyl)-N-methylbenzamide” (A. H. Robins Company, Inc., priority 1980, dated 1981).
Counter-ions that a name gives are not always drawn.

Assays:
[1] = system: Chlorpromazine-Induced Catalepsy; experiment: Effects on Chlorpromazine-Induced Catalepsy; type: in vivo, rat; conditions: Chlorpromazine 4 mg/kg IP, then saline IP after one hour
Protocol: (§1) (+)-4-Amino-N-(1-cyclohexyl-3-pyrrolidinyl)-N-methylbenzamide is useful in reducing the cataleptic side effects of known therapeutically effective drugs such as chlorpromazine [2-chloro-10-(3-dimethylaminopropyl)phenothiazine] and metoclopramide (N-diethylaminoethyl 2-methoxy-4-amino-5-chlorophenylcarboxamide). The effectiveness is shown in Tables IV and V. In each test the rat was administered a 100% effective cataleptic dose of the test drug followed one hour later by an effective dose of (+)-4-amino-N-(1-cyclohexyl-3-pyrrolidinyl)-N-methylbenzamide.

[2] = acute toxicity (LD50), rat; type: in vivo; conditions: in vivo, fumarate salt, expressed as free base, read-out: LD50 (95% Confidence Limits)
Protocol: (§2) The acute toxicities of the ±-racemate, the (+)-isomer and the (-)-isomer were conducted with the fumarate salts and probit analysis (Finney, D. J., Statistical Methods in Biological Assay, Hafner Pub. Co., N.Y., 2nd. Ed., 1964) was employed for the statistical treatment of the mortality data.

[3] = acute toxicity (LD50), mouse; type: in vivo; conditions: in vivo, fumarate salt, expressed as free base, read-out: LD50 (95% Confidence Limits)
Protocol: as §2

[4] = system: catalepsy; experiment: cataleptic effects (Tedeschi et al.); type: in vivo, rat
Text: (§3) The procedure used for determing cataleptic effects of the fumarate salts was based on that of Tedeschi et al., Arch. Int. Pharmacodyn.

[5] = cataleptic effects (Tedeschi et al.); type: in vivo, rat; conditions: in vivo, rat, expressed as free base; for TD50: footnote c, read-out: Neurotoxic dose level evidenced by seizures in test animals; for NOAEL: fumarate salt
Text: as §3

[6] = system: Metoclopramide-Induced Catalepsy; experiment: Effects on Metoclopramide-Induced Catalepsy; type: in vivo, rat; conditions: Metoclopramide 40 mg/kg IP, then saline IP after one hour
Protocol: as §1

CN(C)CCCN1c2ccccc2Sc2ccc(Cl)cc21 [Chlorpromazine, 2-chloro-10-(3-dimethylaminopropyl)phenothiazine, reference compound]
Percent of Rats Cataleptic ([1]; 0.5 h after initial treatment): 100%
Percent of Rats Cataleptic ([1]; 1.0 h after initial treatment): 100%
Percent of Rats Cataleptic ([1]; 1.5 h after initial treatment): 100%
Percent of Rats Cataleptic ([1]; 2.0 h after initial treatment): 100%
Percent of Rats Cataleptic ([1]; 3.0 h after initial treatment): 100%
Percent of Rats Cataleptic ([1]; 4.0 h after initial treatment): 100%
Percent of Rats Cataleptic ([1]; 5.0 h after initial treatment): 100%
Percent of Rats Cataleptic ([1]; 6.0 h after initial treatment): 100%

CN(C(=O)c1ccc(N)cc1)C1CCN(C2CCCCC2)C1 (racemic) [± racemate, 4-amino-N-(1-cyclohexyl-3-pyrrolidinyl)-N-methylbenzamide]
LD50 ([2]; ip, I.P.): 111 mg/kg
LD50 ([2]; po, P.O.): 305 mg/kg
LD50 ([3]; ip, I.P.): 90.2 mg/kg
LD50 ([3]; po, P.O.): 181 mg/kg
cataleptic properties [4]: notable absence of cataleptic properties
TD50 ([5]; IP): 100 mg/kg
NOAEL ([5]; IP): 100 mg/kg
NOAEL ([5]; PO): 200 mg/kg

CCN(CC)CCNC(=O)c1cc(Cl)c(N)cc1OC [Metoclopramide, N-diethylaminoethyl 2-methoxy-4-amino-5-chlorophenylcarboxamide, reference compound]
Percent of Rats Cataleptic ([6]; 0.5 h after initial treatment): 100%
Percent of Rats Cataleptic ([6]; 1.0 h after initial treatment): 100%
Percent of Rats Cataleptic ([6]; 1.5 h after initial treatment): 100%
Percent of Rats Cataleptic ([6]; 2.0 h after initial treatment): 100%
Percent of Rats Cataleptic ([6]; 3.0 h after initial treatment): 100%
Percent of Rats Cataleptic ([6]; 4.0 h after initial treatment): 100%
Percent of Rats Cataleptic ([6]; 5.0 h after initial treatment): 100%
Percent of Rats Cataleptic ([6]; 6.0 h after initial treatment): 100%

CN(C(=O)c1ccc(N)cc1)C1CCN(C2CCCCC2)C1 (single isomer, unassigned; (-)) [(-)-isomer, (-)-4-Amino-N-(1-cyclohexyl-3-pyrrolidinyl)-N-methyl benzamide Fumarate]
LD50 ([2]; ip, I.P.): 116 mg/kg
LD50 ([2]; po, P.O.): 410 mg/kg
LD50 ([3]; ip, I.P.): 103 mg/kg
LD50 ([3]; po, P.O.): 241 mg/kg
TD50 ([5]; IP): 100 mg/kg
